The test system of assay [1] is Cyclin K. The assay is described as follows: Immunohistochemistry (IHC) staining of Cyclin K in HepG2 cells. The format is cell-based. To be noted: incubated with compound 2 hours, CCNK antibody. The protocol: Appropriate amount of compounds were added to the cultured cells. The cells were incubated in a tissue culture incubator at 37° C. for 2 hours.
After washing the cultured cells twice with PBS, 100 μL 10% neutral buffered formalin were added and the cells were fixed for 20 minutes.
After washing 3 times with PBS, immunohistochemical staining was performed using CCNK antibody and general two-step detection kit (mouse/rabbit enhanced polymer detection system, PV-9000, Zsbio Inc, Beijing).
Specifically, 100 μL of endogenous peroxidase blocker in the kit was added, cells were incubated at room temperature for 10 minutes; rinsed with PBS buffer for 3 minutes×3 times.
100 μL CCNK antibody 1:5000 dilution was added, and the cells were incubated at 37° C. for 60 minutes; rinsed with PBS buffer for 3 minutes×3 times.
100 μL reaction enhancer was added, and the cells were incubated at 37° C. for 20 minutes; rinsed with PBS buffer for 3 minutes×3 times.
100 μL enhanced enzyme-labeled goat anti-mouse/rabbit IgG polymer was added, and the cells were incubated at 37° C. for 20 minutes; rinsed with PBS buffer for 3 minutes×3 times.
The cells were placed in 75% ethanol, soaked for 3 minutes×2 times; placed in 95% ethanol, soaked for 3 minutes×2 times; after removing excess liquid, placed in anhydrous ethanol, soaked for 3 minutes×3 times; after removing excess liquid, air dried, observed under a microscope and taken pictures after sealing.

Assay [2] has as its system HepG2 cells. The assay is described as follows: Antiproliferative effect on HepG2 cells. The assay is classed as cell-based. As to conditions: Homo sapiens. The protocol: Reagents: RPMI-1640 medium, McCoy's 5A medium, IMDM medium, MEM medium, L-15 medium, fetal bovine serum, Penicillin-Streptomycin double antibody, trypsin, etc., 2-mercaptoethanol, NEAA, pyruvate, etc.
The test cells were cultured in conventional ways, and the cells should be passed for at least 2 generations before plating.
All cells were subjected to IC50 test for corresponding samples.
The fluorescence intensity of each well was detected using the Alarm blue method, and EC50 was calculated.
IC50 was calculated according to the following formula:
[formula] • wherein, Min, Max and Slope represent the minimum, maximum and slope respectively.

With `CC(C)n1cnc2c(NCc3ccc(-c4ccccc4)cc3)nc(N3CCN[C@@H](CO)C3)nc21` [UB-028, (R)-(4-(6-(([1,1′-biphenyl]-4-ylmethyl)amino)-9-isopropyl-9H-purin-2-yl)piperazin-2-yl) methanol], in assay [1], the “Cyclin K IHC data of HepG2 cells” value is “A (A <= 31 nM)”. For `CC(C)n1cnc2c(NCc3ccc(-c4ccccc4)c(OCCO)c3)nc(N3CCNCC3)nc21` [UB-043, 2-((4-(((9-isopropyl-2-(piperazin-1-yl)-9H-purin-6-yl)amino)methyl)-[1,1′-biphenyl]-2-yl)oxy)ethanol], the IC50 (commonly the concentration that inhibits the measured activity by half) in assay [2] fell in the range of 100 to 300 nM. Moreover, the “Cyclin K IHC data of HepG2 cells” value in assay [1] is reported as “D (D > 278 nM)”.

In assay [2], `CC(C)n1cnc2c(NCc3ccc(-c4ccccc4)c(OCCCC#N)c3)nc(N3CCNCC3)nc21` [UB-063, 4-((4-(((9-isopropyl-2-(piperazin-1-yl)-9H-purin-6-yl)amino)methyl)-[1,1′-biphenyl]-2-yl)oxy)butyronitrile] registered an IC50 of 100 to 300 nM. Further, in assay [1], the “Cyclin K IHC data of HepG2 cells” value is reported as “D (D > 278 nM)”. For `CC(C)n1cnc2c(NCc3ccc(-c4ccccc4)cc3)nc(N3CCN[C@H](C)C3)nc21` [UB-027, (R)-N-([1,1′-biphenyl]-4-ylmethyl)-9-isopropyl-2-(3-methylpiperazin-1-yl)-9H-purin-6-amine] the same measures were < 50 nM and “A (A <= 31 nM)”.

As to `CC(C)n1cnc2c(NCc3ccc(-c4ccccc4)cc3)nc(N3CCN[C@H](CCO)C3)nc21` [UB-031, (R)-2-(4-(6-(([1,1′-biphenyl]-4-ylmethyl)amino)-9-isopropyl-9H-purin-2-yl)piperazin-2-yl) ethan-1-ol], the “Cyclin K IHC data of HepG2 cells” value in assay [1] is recorded as “B (31 nM < B <= 93 nM)”.

Take `CC(C)n1cnc2c(NCc3ccc(-c4ccccc4)cc3)nc(N3C[C@@H](C)N[C@H](C)C3)nc21` [UB-032, N-([1,1′-biphenyl]-4-ylmethyl)-2-((3R,5R)-3,5-dimethylpiperazin-1-yl)-9-isopropyl-9H-purin-6-amine]: the “Cyclin K IHC data of HepG2 cells” value in assay [1] is “D (D > 278 nM)”. On to `CC(C)n1cnc2c(NCc3ccc(-c4ccccc4)c(O)c3)nc(N3CCNCC3)nc21` [UB-042], for which, in assay [2], the half-maximal inhibitory concentration (IC50) was < 50 nM. Besides, in assay [1], the “Cyclin K IHC data of HepG2 cells” value is “B (31 nM < B <= 93 nM)”. Turning to `CC(C)n1cnc2c(NCc3ccc(-c4ccccc4)cc3)nc(N3CCNC4(CC4)C3)nc21` [UB-059, N-([1,1′-biphenyl]-4-ylmethyl)-9-isopropyl-2-(4,7-diazaspiro[2.5]octan-7-yl)-9H-purin-6-amine], the “Cyclin K IHC data of HepG2 cells” value in assay [1] is on record as “B (31 nM < B <= 93 nM)”.

Take `CC(C)n1cnc2c(NCc3ccc(-c4ccccc4)cc3)nc(OC[C@H]3CNCCN3)nc21` [UB-034, (R)-N-([1,1′-biphenyl]-4-ylmethyl)-9-isopropyl-2-(piperazin-2-ylmethoxy)-9H-purin-6-amine]: in assay [2], the IC50 was in the range of 50 to 100 nM. In assay [1], the “Cyclin K IHC data of HepG2 cells” value was “C (93 nM < C <= 278 nM)”. For `CC(C)n1cnc2c(NCc3ccc(-c4ccccc4)cc3)nc(N3CCNC[C@@H]3CO)nc21` [UB-023, (R)-(1-(6-(([1,1′-biphenyl]-4-ylmethyl)amino)-9-isopropyl-9H-purin-2-yl)piperazin-2-yl) methanol] the same measures were 50 to 100 nM and “C (93 nM < C <= 278 nM)”.

Regarding `CC(C)n1cnc2c(NCc3ccc(-c4ccccc4)cc3)nc(N3C[C@@H](C)N[C@@H](C)C3)nc21` [UB-060, N-([1,1′-biphenyl]-4-ylmethyl)-2-((3R,5S)-3,5-dimethylpiperazin-1-yl)-9-isopropyl-9H-purin-6-amine], in assay [1], the “Cyclin K IHC data of HepG2 cells” value is on record as “A (A <= 31 nM)”. Consider `CCCOc1ccccc1-c1ccc(CNc2nc(N3CCNCC3)nc3c2ncn3C(C)C)cc1` [UB-049, 9-isopropyl-2-(piperazin-1-yl)-N-((2′-propoxy-[1,1′-biphenyl]-4-yl)methyl)-9H-purin-6-amine], for which the IC50 in assay [2] lay within 100 to 300 nM. The “Cyclin K IHC data of HepG2 cells” value in assay [1] was “D (D > 278 nM)”. The corresponding values for `CC(C)n1cnc2c(NCc3ccc(-c4ccccc4)cc3)nc(N3CCNC[C@H]3CO)nc21` [UB-022, (S)-(1-(6-(([1,1′-biphenyl]-4-ylmethyl)amino)-9-isopropyl-9H-purin-2-yl)piperazin-2-yl) methanol] are < 50 nM and “A (A <= 31 nM)”.

In the case of `Fc1cccc(-n2cnc3c(NCc4ccc(-c5ccccc5)cc4)nc(N4CCNCC4)nc32)c1` [UB-054, N-([1,1′-biphenyl]-4-ylmethyl)-9-(3-fluorophenyl)-2-(piperazin-1-yl)-9H-purin-6-amine], the “Cyclin K IHC data of HepG2 cells” value in assay [1] is given as “D (D > 278 nM)”.

Turning to `CC(C)n1cnc2c(NCc3ccc(-c4ccccc4)cc3)nc(N[C@H]3C[C@H](N)C3)nc21` [UB-061, N6-([1,1′-biphenyl]-4-yl-methyl)-N2-((1r,3r)-3-aminocyclobutyl)-9-isopropyl-9H-purin-2,6-diamine], in assay [2], the IC50 is < 50 nM. Also, in assay [1], the “Cyclin K IHC data of HepG2 cells” value is “B (31 nM < B <= 93 nM)”. Take `CC(C)n1cnc2c(NCc3ccc(-c4ccccc4)cc3)nc(N[C@H]3CCNC3)nc21` [UB-037, (S)-N6-([1,1′-biphenyl]-4-ylmethyl)-9-isopropyl-N2-(pyrrolidin-3-yl)-9H-purin-2,6-diamine]: the IC50 in assay [2] is < 50 nM. In addition, the “Cyclin K IHC data of HepG2 cells” value in assay [1] is “C (93 nM < C <= 278 nM)”. In the case of `CC(C)n1cnc2c(NCc3ccc(-c4ccccc4)cc3)nc(N3CCNC[C@@H]3CCO)nc21` [UB-025, (S)-2-(1-(6-(([1,1′-biphenyl]-4-ylmethyl)amino)-9-isopropyl-9H-purin-2-yl)piperazin-2-yl) ethan-1-ol], the “Cyclin K IHC data of HepG2 cells” value in assay [1] was “A (A <= 31 nM)”. For `CC(C)n1cnc2c(NCc3ccc(-c4ccccc4)cc3)nc(N3CCNC[C@H]3C)nc21` [UB-020, (R)-N-([1,1′-biphenyl]-4-ylmethyl)-9-isopropyl-2-(2-methylpiperazin-1-yl)-9H-purin-6-amine], the IC50 in assay [2] was < 50 nM. For the same molecule, in assay [1], the “Cyclin K IHC data of HepG2 cells” value is “B (31 nM < B <= 93 nM)”. Consider `CC(C)n1cnc2c(NCc3ccc(-c4ccccc4)cc3)nc(N3CCNC[C@H]3CCO)nc21` [UB-024, (R)-2-(1-(6-(([1,1′-biphenyl]-4-ylmethyl)amino)-9-isopropyl-9H-purin-2-yl)piperazin-2-yl) ethan-1-ol], for which the “Cyclin K IHC data of HepG2 cells” value in assay [1] is “A (A <= 31 nM)”.

As for `CC(C)n1cnc2c(NCc3ccc(-c4ccccc4)cc3)nc(NC3CCNCC3)nc21` [UB-016, N6-([1,1′-biphenyl]-4-yl-methyl)-9-isopropyl-N2-(Piperidin-4-yl)-9H-purin-2,6-diamine], in assay [1], the “Cyclin K IHC data of HepG2 cells” value was “C (93 nM < C <= 278 nM)”. Still for that read-out and setting: as for `CC(C)n1cnc2c(NCc3ccc(-c4ccccc4)cc3)nc(N3CCN[C@@H](CCO)C3)nc21` [UB-030, (S)-2-(4-(6-(([1,1′-biphenyl]-4-ylmethyl)amino)-9-isopropyl-9H-purin-2-yl)piperazin-2-yl) ethan-1-ol], the entry is “B (31 nM < B <= 93 nM)”. The same measure, in the same setting: as for `CC(C)n1cnc2c(NCc3ccc(-c4ccccc4)cc3)nc(N3CCN[C@H](CO)C3)nc21` [UB-029, (S)-(4-(6-(([1,1′-biphenyl]-4-ylmethyl)amino)-9-isopropyl-9H-purin-2-yl)piperazin-2-yl) methanol], the entry is “B (31 nM < B <= 93 nM)”.

The values above are taken from patent publication US20260152501A1, “CYCLIN MODULATOR” (EUBULUS BIOTHERAPEUTICS (HONG KONG) LIMITED, priority 2022, published 2026).
